Tests used:
human CYP26A1 enzyme = target: T1, human CYP26A1 enzyme (Homo sapiens, UniProt O43174); test: Cell test, HeLa cells overexpressing human CYP26A1, metabolism of radiolabelled retinoic acid (3H-RA); format: cell-based; conditions: for AC50: HeLa cells overexpressing human CYP26A1, 3 h incubation with 3H-RA, mean of two experiments; for CYP26B1/CYP26A1 (selectivity ratio of mean AC50): ratio of AC50 CYP26B1 to AC50 CYP26A1; for Isoform activity in words: CYP26A1 versus CYP26B1, HeLa cell test
T1 construct: expressed in transfected cells; host or cells: HeLa cells
T1 sequence (O43174 1-497): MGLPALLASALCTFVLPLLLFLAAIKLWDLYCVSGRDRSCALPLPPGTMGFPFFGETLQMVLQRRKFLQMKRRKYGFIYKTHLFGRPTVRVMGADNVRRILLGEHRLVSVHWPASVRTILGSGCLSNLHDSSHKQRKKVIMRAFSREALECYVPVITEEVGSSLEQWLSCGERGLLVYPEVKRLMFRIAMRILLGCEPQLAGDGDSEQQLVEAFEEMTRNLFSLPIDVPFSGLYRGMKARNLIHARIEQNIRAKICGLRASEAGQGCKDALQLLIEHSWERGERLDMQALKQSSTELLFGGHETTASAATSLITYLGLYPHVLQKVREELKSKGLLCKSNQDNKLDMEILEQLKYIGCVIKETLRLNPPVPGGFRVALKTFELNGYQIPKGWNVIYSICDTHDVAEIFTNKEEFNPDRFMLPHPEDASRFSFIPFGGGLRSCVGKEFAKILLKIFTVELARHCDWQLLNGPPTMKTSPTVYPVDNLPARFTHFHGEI
Experimental: (§1) A cell test using HeLa cells overexpressing either the human CYP26A1 enzyme or the human CYP26B1 enzyme, similar to that described in White et al.(Proc Natl Acad Sci U S A. 2000 Jun 6; 97(12): 6403-8), was used. […] After the incubation time of 3 h, the reaction was stopped and an extraction phase was carried out in order to separate the aqueous and organic layers. The amount of radioactivity present in the aqueous layer was then measured as an indicator of the amount of RA which was metabolized.
(§2) A first experiment using 3 different concentrations of compounds according to the invention (0.1, 1 and 10 μM) was carried out in order to evaluate the inhibitory activity of the compounds. A second test was then carried out with a wide range of concentrations (0.01, 0.1, 0.5, 1, 5 and 10 μM).

human CYP26B1 enzyme = target: T2, human CYP26B1 enzyme (Homo sapiens, UniProt Q9NR63); test: Cell test, HeLa cells overexpressing human CYP26B1, metabolism of radiolabelled retinoic acid (3H-RA); format: cell-based; conditions: 3 h incubation with 3H-RA, mean of two experiments
T2 construct: expressed in transfected cells; host or cells: HeLa cells
T2 sequence (Q9NR63 1-512): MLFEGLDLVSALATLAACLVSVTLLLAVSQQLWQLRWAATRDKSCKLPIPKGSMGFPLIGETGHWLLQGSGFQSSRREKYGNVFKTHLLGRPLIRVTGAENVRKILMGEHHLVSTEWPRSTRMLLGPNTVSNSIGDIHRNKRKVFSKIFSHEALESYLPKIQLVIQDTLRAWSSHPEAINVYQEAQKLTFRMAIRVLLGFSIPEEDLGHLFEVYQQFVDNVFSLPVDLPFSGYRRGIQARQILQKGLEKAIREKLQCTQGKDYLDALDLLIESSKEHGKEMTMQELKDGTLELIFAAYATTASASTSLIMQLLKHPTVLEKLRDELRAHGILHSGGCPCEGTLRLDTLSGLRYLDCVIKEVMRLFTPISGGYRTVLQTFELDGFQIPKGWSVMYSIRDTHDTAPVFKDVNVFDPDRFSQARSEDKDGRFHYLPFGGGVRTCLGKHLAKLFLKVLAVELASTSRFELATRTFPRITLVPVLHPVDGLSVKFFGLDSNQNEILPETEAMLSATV
Experimental: as §1
as §2, with “μM). The results obtained during these two tests are similar.” for “μM).”
The following table lists the mean of the AC50 values obtained over these two experiments.

stratum corneum = test: Measurement of the thickness of the stratum corneum in Fuzzy rats; format: in vivo, rat; conditions: for Thickness of the stratum corneum (μm) / Thickness of the stratum corneum relative to the carrier: male Fuzzy rats, topical, 24 days after the treatment
Experimental: Male Fuzzy rats are separated into four batches each comprising five rats. A topical treatment is carried out on each batch by administering, respectively, a carrier acting as a control, a dose of 0.000001% of retinol, a dose of 0.1% of retinol and a dose of 0.3% of a compound according to the invention corresponding to Example 1.
24 days after the treatment, the rats are euthanized and a 10 μm section of skin is sampled in order to perform a biopsy. A 1M NaOH solution is added to each section in order to soften the stratum corneum. The photos under a microscope are taken in a time period of 2 minutes after the addition of the 1M NaOH solution.
The table below presents the results on the thickness of the stratum corneum for the various batches.

CYP26B1 isoform = target: T3, CYP26B1 isoform (Homo sapiens, UniProt Q9NR63); conditions: background statement; cited from earlier work
T3 sequence (Q9NR63 1-512): T2 sequence (Q9NR63 1-512)

AC50 (human CYP26A1 enzyme) [nM]	CYP26B1/CYP26A1 (selectivity ratio of mean AC50) (human CYP26A1 enzyme)	AC50 (human CYP26B1 enzyme) [nM]	SMILES	Thickness of the stratum corneum (μm) (stratum corneum; dose 0.3%)	Thickness of the stratum corneum relative to the carrier (stratum corneum; dose 0.3%)	Photographs of the keratinous layer (FIGS. 2 and 3), result in words (stratum corneum; rats treated with 0.3% versus carrier)	Isoform activity in words (human CYP26A1 enzyme)	Activity on the CYP26B1 isoform (CYP26B1 isoform)	Thickness of the stratum corneum (μm) (stratum corneum; dose 0.000001%)	Thickness of the stratum corneum relative to the carrier (stratum corneum; dose 0.000001%)	Thickness of the stratum corneum (μm) (stratum corneum; dose 0.1%)	Thickness of the stratum corneum relative to the carrier (stratum corneum; dose 0.1%)
190	261.50	50300	CC1(C)CCC(C)(C)c2cc(S(=O)(=O)CCc3ccc(C(=O)O)cc3)ccc21 [Compound 1, 4-[2-(5,5,8,8-Tetramethyl-5,6,7,8-tetrahydronaphthalene-2-sulphonyl)ethyl]benzoic acid]	24.07	0.57	decrease in the thickness of the stratum corneum	–	–	–	–	–	–
–	–	320	Clc1cccc(C(c2ccc3[nH]cnc3c2)n2ccnc2)c1 (centres unmarked) [Liarozole]	–	–	–	more active on CYP26B1 than on CYP26A1	–	–	–	–	–
4	16.82	64	CCC(CC)C(c1ccc(Nc2nc3ccccc3s2)cc1)n1cncn1 (centres unmarked) [Rambazole]	–	–	–	active on the inhibition of the activity of the two isoforms	about 62 nM	–	–	–	–
–	–	–	CC1=C(/C=C/C(C)=C/C=C/C(C)=C/CO)C(C)(C)CCC1 [Retinol]	–	–	–	–	–	41.60	0.98	26.24	0.62

— patent US9408793B2, “Selective compounds inhibiting CYP26A1 useful in cosmetic and pharmaceutical compositions” (GALDERMA RESEARCH & DEVELOPMENT, priority 2012, dated 2016)
